From patent US7767659B2, “Synthesis of naturally occurring ecteinascidins and related compounds” (Pharma Mar, S.A., priority 2002, dated 2010)
Read-outs that look alike come from different tables or passages of the source.

Assays:
LoVo-Dox = test: Inhibition of cells growth by colorimetric assay (SRB); conditions: for GI50: read-out: LOVO-DOX GI50; for CC50: read-out: LOVO-DOX LC50
In short: (§1)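 Colorimetric SRB read (490 nm) on triplicate wells after 48 h at 37 °C, 5% CO2. Dose range 10 to 10^−8 μg/ml; 5×10^3 cells/well pre-attached 18 h.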

HeLa = test: as above; conditions: for GI50: read-out: HELA GI50; for CC50: read-out: HELA LC50
In short: as §1

DU-145 = test: as above; conditions: for GI50: read-out: GI50 DU145; for CC50: read-out: LC50 DU145
In short: as §1

IGROV-1 = test: as above; conditions: for GI50: read-out: IGROV GI50; for CC50: read-out: IGROV LC50
In short: as §1

PANC-1 = test: as above; conditions: for GI50: read-out: PANC-1 GI50; for CC50: read-out: PANC-1 LC50
In short: as §1

LNCaP = test: as above; conditions: for GI50: read-out: GI50 LNCAP; for CC50: read-out: LC50 LNCAP
In short: as §1

IGROV-ET = test: as above; conditions: for GI50: read-out: IGROV-ET GI50; for CC50: read-out: IGROV-ET LC50
In short: as §1

SK-BR-3 = test: as above; conditions: for GI50: read-out: SK-BR3 GI50; for CC50: read-out: SK-BR3 LC50
In short: as §1

HeLa-APL = test: as above; conditions: for GI50: read-out: HELA-APL GI50; for CC50: read-out: HELA-APL LC50
In short: as §1

SK-MEL-28 = test: as above; conditions: for GI50: read-out: GI50 MEL-28; for CC50: read-out: LC50 MEL-28
In short: as §1

K-562 = test: as above; conditions: for GI50: read-out: K562 GI50; for CC50: read-out: K562 LC50
In short: as §1

HT-29 = test: cells; conditions: for GI50: read-out: GI50 HT29; for CC50: read-out: LC50 HT29
In short: as §1

A-549 = test: cells; conditions: for GI50: read-out: GI50 A549; for CC50: read-out: LC50 A549
In short: as §1

LoVo = test: cells; conditions: for GI50: read-out: LOVO GI50; for CC50: read-out: LOVO LC50
In short: as §1

COc1c(C)cc2c(c1OC(=O)/C=C/c1ccccc1)[C@H]1N[C@@H](C2)[C@H](C#N)N2C1[C@@H]1SCC(NC(=O)C(F)(F)F)C(=O)OC[C@H]2c2c3c(c(C)c(OC(C)=O)c21)OCO3 (stereo partly drawn) [compound 34]
GI50 (LoVo-Dox; Homo sapiens, 48 h): 140 nM
CC50 (LoVo-Dox; Homo sapiens, 48 h): 12000 nM
IC (TGI) (LoVo-Dox; Homo sapiens, 48 h, read-out: LOVO-DOX TGI): 410 nM
GI50 (HeLa; Homo sapiens, HeLa, 48 h): 33.5 nM
CC50 (HeLa; Homo sapiens, HeLa, 48 h): 116 nM
IC (TGI) (HeLa; Homo sapiens, HeLa, 48 h, read-out: HELA TGI): 62.4 nM
GI50 (DU-145; Homo sapiens, DU-145, 48 h): 51.1 nM
CC50 (DU-145; Homo sapiens, DU-145, 48 h): 53.7 nM
IC (TGI) (DU-145; Homo sapiens, DU-145, 48 h, read-out: TGI DU145): 98.7 nM
GI50 (IGROV-1; Homo sapiens, IGROV-1, 48 h): 29.2 nM
CC50 (IGROV-1; Homo sapiens, IGROV-1, 48 h): 117 nM
IC (TGI) (IGROV-1; Homo sapiens, IGROV-1, 48 h, read-out: IGROV TGI): 58.3 nM
GI50 (PANC-1; Homo sapiens, PANC-1, 48 h): 51.1 nM
CC50 (PANC-1; Homo sapiens, PANC-1, 48 h): 841 nM
IC (TGI) (PANC-1; Homo sapiens, PANC-1, 48 h, read-out: PANC-1 TGI): 123 nM
GI50 (LNCaP; Homo sapiens, LNCaP, 48 h): 22 nM
CC50 (LNCaP; Homo sapiens, LNCaP, 48 h): 147 nM
IC (TGI) (LNCaP; Homo sapiens, LNCaP, 48 h, read-out: TGI LNCAP): 52.1 nM
GI50 (IGROV-ET; Homo sapiens, 48 h): 89.5 nM
CC50 (IGROV-ET; Homo sapiens, 48 h): 860 nM
IC (TGI) (IGROV-ET; Homo sapiens, 48 h, read-out: IGROV-ET TGI): 262 nM
GI50 (SK-BR-3; Homo sapiens, SK-BR-3, 48 h): 12.7 nM
CC50 (SK-BR-3; Homo sapiens, SK-BR-3, 48 h): 626 nM
IC (TGI) (SK-BR-3; Homo sapiens, SK-BR-3, 48 h, read-out: SK-BR3 TGI): 70.1 nM
GI50 (HeLa-APL; Homo sapiens, 48 h): 33.9 nM
CC50 (HeLa-APL; Homo sapiens, 48 h): 108 nM
IC (TGI) (HeLa-APL; Homo sapiens, 48 h, read-out: HELA-APL TGI): 60.5 nM
GI50 (SK-MEL-28; Homo sapiens, SK-MEL-28, 48 h): 32.7 nM
CC50 (SK-MEL-28; Homo sapiens, SK-MEL-28, 48 h): 111 nM
IC (TGI) (SK-MEL-28; Homo sapiens, SK-MEL-28, 48 h, read-out: TGI MEL-28): 60.3 nM
GI50 (K-562; Homo sapiens, K562, 48 h): 16.2 nM
CC50 (K-562; Homo sapiens, K562, 48 h): 146 nM
IC (TGI) (K-562; Homo sapiens, K562, 48 h, read-out: K562 TGI): 45 nM
GI50 (HT-29; Homo sapiens, HT-29, 48 h): 62 nM
CC50 (HT-29; Homo sapiens, HT-29, 48 h): 1640 nM
IC (TGI) (HT-29; Homo sapiens, HT-29, 48 h, read-out: TGI HT29): 165 nM
GI50 (A-549; Homo sapiens, A549, 48 h): 55.3 nM
CC50 (A-549; Homo sapiens, A549, 48 h): 611 nM
IC (TGI) (A-549; Homo sapiens, A549, 48 h, read-out: TGI A549): 184 nM
GI50 (LoVo; Homo sapiens, LoVo, 48 h): 28.7 nM
CC50 (LoVo; Homo sapiens, LoVo, 48 h): 98.6 nM
IC (TGI) (LoVo; Homo sapiens, LoVo, 48 h, read-out: LOVO TGI): 53.2 nM

COc1c(C)cc2c(c1O)C1C3C4SCC(NC(C)=O)C(=O)OCC(c5c6c(c(C)c(OC(C)=O)c54)OCO6)N3C(C#N)C(C2)N1C(C)=O (stereo not drawn) [compound 35]
LOVO-DOX TGI (LoVo-Dox; SRB assay, 48 hours exposure, LOVO-DOX, total growth inhibition): 1.44E−05 Molar
GI50 (LoVo-Dox; SRB assay, 48 hours exposure, LOVO-DOX): 5750 nM
CC50 (LoVo-Dox; SRB assay, 48 hours exposure, LOVO-DOX, cell killing): 14400 nM
HELA TGI (HeLa; SRB assay, 48 hours exposure, HELA, total growth inhibition): 8.37E−07 Molar
GI50 (HeLa; SRB assay, 48 hours exposure, HELA): 396 nM
CC50 (HeLa; SRB assay, 48 hours exposure, HELA, cell killing): 3390 nM
TGI DU145 (DU-145; DU145, SRB, 48 hours exposure): 1.20E−06 Molar
GI50 (DU-145; DU145, SRB, 48 hours exposure): 570 nM
CC50 (DU-145; DU145, SRB, 48 hours exposure): 10300 nM
IGROV TGI (IGROV-1; SRB assay, 48 hours exposure, IGROV, total growth inhibition): 1.69E−06 Molar
GI50 (IGROV-1; SRB assay, 48 hours exposure, IGROV): 420 nM
CC50 (IGROV-1; SRB assay, 48 hours exposure, IGROV, cell killing): 8630 nM
PANC-1 TGI (PANC-1; SRB assay, 48 hours exposure, PANC-1, total growth inhibition): 1.41E−06 Molar
GI50 (PANC-1; SRB assay, 48 hours exposure, PANC-1): 471 nM
CC50 (PANC-1; SRB assay, 48 hours exposure, PANC-1, cell killing): 14400 nM
TGI LNCAP (LNCaP; LNCAP, SRB, 48 hours exposure): 3.97E−07 Molar
GI50 (LNCaP; LNCAP, SRB, 48 hours exposure): 189 nM
CC50 (LNCaP; LNCAP, SRB, 48 hours exposure): 834 nM
IGROV-ET TGI (IGROV-ET; SRB assay, 48 hours exposure, IGROV-ET, total growth inhibition): 6.35E−06 Molar
GI50 (IGROV-ET; SRB assay, 48 hours exposure, IGROV-ET): 2300 nM
CC50 (IGROV-ET; SRB assay, 48 hours exposure, IGROV-ET, cell killing): 14400 nM
SK-BR3 TGI (SK-BR-3; SRB assay, 48 hours exposure, SK-BR3, total growth inhibition): 1.10E−06 Molar
GI50 (SK-BR-3; SRB assay, 48 hours exposure, SK-BR3): 396 nM
CC50 (SK-BR-3; SRB assay, 48 hours exposure, SK-BR3, cell killing): 9350 nM
HELA-APL TGI (HeLa-APL; SRB assay, 48 hours exposure, HELA-APL, total growth inhibition): 1.09E−06 Molar
GI50 (HeLa-APL; SRB assay, 48 hours exposure, HELA-APL): 458 nM
CC50 (HeLa-APL; SRB assay, 48 hours exposure, HELA-APL, cell killing): 5920 nM
TGI MEL-28 (SK-MEL-28; MEL-28, SRB, 48 hours exposure): 8.63E−07 Molar
GI50 (SK-MEL-28; MEL-28, SRB, 48 hours exposure): 390 nM
CC50 (SK-MEL-28; MEL-28, SRB, 48 hours exposure): 3190 nM
K562 TGI (K-562; SRB assay, 48 hours exposure, K562, total growth inhibition): 1.13E−06 Molar
GI50 (K-562; SRB assay, 48 hours exposure, K562): 193 nM
CC50 (K-562; SRB assay, 48 hours exposure, K562, cell killing): 9770 nM
TGI HT29 (HT-29; HT29, SRB, 48 hours exposure): 8.18E−06 Molar
GI50 (HT-29; HT29, SRB, 48 hours exposure): 602 nM
CC50 (HT-29; HT29, SRB, 48 hours exposure): 14400 nM
TGI A549 (A-549; A549, SRB, 48 hours exposure): 5.96E−06 Molar
GI50 (A-549; A549, SRB, 48 hours exposure): 2930 nM
CC50 (A-549; A549, SRB, 48 hours exposure): 12100 nM
LOVO TGI (LoVo; SRB assay, 48 hours exposure, LOVO, total growth inhibition): 2.14E−06 Molar
GI50 (LoVo; SRB assay, 48 hours exposure, LOVO): 564 nM
CC50 (LoVo; SRB assay, 48 hours exposure, LOVO, cell killing): 14400 nM
